Laboratory results taken from the CheMixHub viscosity set.

Test: xn = mol fraction of the nth substance listed

CO + O
Details | viscosity [mPa·s]
293.15 K, 100 kPa, x1 = 0.2 | 1.801
293.15 K, 100 kPa, x1 = 0.3 | 1.845
293.15 K, 100 kPa, x1 = 0.4 | 1.764
293.15 K, 101 kPa, x1 = 0.055 | 1.262
293.15 K, 101 kPa, x1 = 0.129 | 1.651
293.15 K, 101 kPa, x1 = 0.232 | 1.836
293.15 K, 101 kPa, x1 = 0.487 | 1.555
293.15 K, 101 kPa, x1 = 0.541 | 1.418
293.15 K, 101 kPa, x1 = 0.625 | 1.23
293.15 K, 101 kPa, x1 = 0.642 | 1.186
293.15 K, 101 kPa, x1 = 0.903 | 0.745
293.15 K, 101.3 kPa, x1 = 0.05886 | 1.276
293.15 K, 101.3 kPa, x1 = 0.05892 | 1.276
293.15 K, 101.3 kPa, x1 = 0.1014 | 1.465
293.15 K, 101.3 kPa, x1 = 0.1021 | 1.453
293.15 K, 101.3 kPa, x1 = 0.1493 | 1.628
293.15 K, 101.3 kPa, x1 = 0.1972 | 1.742
293.15 K, 101.3 kPa, x2 = 0.0969 | 0.743
293.15 K, 101.3 kPa, x2 = 0.2006 | 0.916
293.15 K, 101.3 kPa, x2 = 0.3002 | 1.105
293.15 K, 101.3 kPa, x2 = 0.4001 | 1.314
293.15 K, 101.3 kPa, x2 = 0.5 | 1.501
293.15 K, 101.3 kPa, x2 = 0.7 | 1.837
293.15 K, 101.3 kPa, x2 = 0.85 | 1.705
293.15 K, 101.3 kPa, x2 = 0.9 | 1.528
293.15 K, 101.3 kPa, x2 = 0.95 | 1.278
298.15 K, 101 kPa, x1 = 0.0519 | 1.129
298.15 K, 101 kPa, x1 = 0.0845 | 1.264
298.15 K, 101 kPa, x1 = 0.125 | 1.385
298.15 K, 101 kPa, x1 = 0.217 | 1.576
298.15 K, 101 kPa, x1 = 0.274 | 1.59
298.15 K, 101 kPa, x1 = 0.465 | 1.35
298.15 K, 101 kPa, x1 = 0.702 | 1.03
298.15 K, 101 kPa, x2 = 0.9413 | 1.1
298.15 K, 101.3 kPa, x1 = 0.1021 | 1.3
298.15 K, 101.3 kPa, x1 = 0.1233 | 1.392
298.15 K, 101.3 kPa, x1 = 0.2727 | 1.595
298.15 K, 101.3 kPa, x1 = 0.3599 | 1.534
298.15 K, 101.3 kPa, x1 = 0.4576 | 1.401
298.15 K, 101.3 kPa, x1 = 0.5675 | 1.218
298.15 K, 101.3 kPa, x1 = 0.6922 | 1.005
298.15 K, 101.3 kPa, x1 = 0.835 | 0.782
298.15 K, 101.3 kPa, x1 = 0.9144 | 0.659
298.15 K, 101.33 kPa, x1 = 0.03958 | 1.055
298.15 K, 101.33 kPa, x1 = 0.05923 | 1.157
298.15 K, 101.33 kPa, x1 = 0.1332 | 1.403
298.15 K, 101.33 kPa, x1 = 0.2396 | 1.6
298.15 K, 101.33 kPa, x1 = 0.2551 | 1.575
298.15 K, 101.33 kPa, x1 = 0.2785 | 1.57
298.15 K, 101.33 kPa, x1 = 0.3255 | 1.57
298.15 K, 101.33 kPa, x1 = 0.3558 | 1.532
298.15 K, 101.33 kPa, x1 = 0.3863 | 1.49
298.15 K, 101.33 kPa, x1 = 0.4426 | 1.427
298.15 K, 101.33 kPa, x1 = 0.4685 | 1.37
298.15 K, 101.33 kPa, x1 = 0.5278 | 1.282
298.15 K, 101.33 kPa, x1 = 0.6055 | 1.167
298.15 K, 101.33 kPa, x1 = 0.6583 | 1.105
303.15 K, 101 kPa, x1 = 0.055 | 0.978
303.15 K, 101 kPa, x1 = 0.129 | 1.245
303.15 K, 101 kPa, x1 = 0.176 | 1.313
303.15 K, 101 kPa, x1 = 0.256 | 1.37
303.15 K, 101 kPa, x1 = 0.487 | 1.218
303.15 K, 101 kPa, x1 = 0.541 | 1.126
303.15 K, 101 kPa, x1 = 0.642 | 0.974
303.15 K, 101 kPa, x1 = 0.903 | 0.63
303.15 K, 101.3 kPa, x1 = 0.0588 | 1.015
303.15 K, 101.3 kPa, x1 = 0.1233 | 1.206
303.15 K, 101.3 kPa, x1 = 0.2727 | 1.381
303.15 K, 101.3 kPa, x1 = 0.4576 | 1.239
303.15 K, 101.3 kPa, x1 = 0.5675 | 1.085
303.15 K, 101.3 kPa, x1 = 0.6922 | 0.907
303.15 K, 101.3 kPa, x1 = 0.835 | 0.714
303.15 K, 101.3 kPa, x1 = 0.9144 | 0.612
303.15 K, 101.3 kPa, x2 = 0.0969 | 0.634
303.15 K, 101.3 kPa, x2 = 0.1 | 0.618
303.15 K, 101.3 kPa, x2 = 0.2006 | 0.768
303.15 K, 101.3 kPa, x2 = 0.208 | 0.755
303.15 K, 101.3 kPa, x2 = 0.3002 | 0.906
303.15 K, 101.3 kPa, x2 = 0.3041 | 0.878
303.15 K, 101.3 kPa, x2 = 0.4001 | 1.062
